Several values for one entry are separate records, joined by “and”; a condition that tells them apart may be missing. Identical values can stand only once.
Assays:
Format in all cases: cell-based
CCRF-CEM cells = assay: Cytotoxicity, non-adherent CCRF-CEM cells, CellTiter-Glo luminescent cell viability; conditions: CCRF-CEM human T leukaemia, 96 h incubation
Experimental: CCRF-CEM is a human T leukaemia (Cancer 1965, 18: 522-529). Oxaliplatin induces bifunctional lesions such as inter- and intra-DNA strand adducts on these CCRF-CEM cells (Mol Pharmacol 2000, 58: 920-927). […] This deficiency makes these cells particularly […] to alkylating agents and to platinum compounds.
For the non-adherent CCRF-CEM cells, the cell viability is measured by the luminescence test CellTiter-Glo® Luminescent Cell Viability Assay (Promega, Madison, Wis., USA). When it is added to the cells, the reagent produces a luminescence in the presence of the ATP of the living cells. The results are evaluated on a suitable reader (Envision, Perkin-Elmer Life Sciences, Boston, Mass., USA).
The CCRF-CEM cells are cultured in RPMI1640 medium containing 10% foetal calf serum, 2 mM L-glutamine, 100 units/ml of penicillin and […] of streptomycin, at 37° C. in a 95% air/5% CO2 atmosphere. The cells, at the exponential growth phase, are introduced into the wells of a 96-well plate at the density of 5×10^3 cells per well in an opaque plate (Greiner), in a volume of 150 μl. After incubating for 4 h at 37° C. in a 95% air/5% CO2 atmosphere, the compounds (concentrated 20-fold) are added in a volume of 8 μl. The compounds are prepared beforehand as a stock solution at the concentration of 10 mM in DMSO. A serial dilution is performed before the compounds are brought into contact with the cells. After incubating for 96 h at 37° C., 100 μl of agents (CellTiter-Glo) are added. After lysing the cells, the release of ATP is evaluated on the Envision reader.
(§1) The IC50 values are evaluated from curves presenting the percentage viability as a function of the concentration of the test compound, using the Biostat speed software. The IC50 is defined as the concentration of the compound which inhibits 50% of the cell proliferation or 50% of the cell viability.

H460 = assay: Cytotoxicity, adherent cells, 14C-thymidine incorporation (cell proliferation); conditions: NCI-H460 human non-small cell lung cancer, 96 h treatment
Experimental: NCI-H460 is a human non-small cell lung cancer which has a mutation in the K-ras gene. This cell is sensitive to platinum compounds. In this cell line, cisplatin forms more adducts than oxaliplatin at the same concentration and yet the percentage repair is higher for oxaliplatin (DNA Repair 2006, 5: 219-225).
(§2) Cell proliferation is evaluated by the incorporation of ^14C-thymidine into the DNA of the cells. A549, CH1, CH1/DDP and H460 are cultured in Dulbecco's modified Eagle's medium (DMEM), SK-OV-3 in Mc-Coy medium, A2780 and A2780/DDP in RPMI1640 medium. All the media contain 10% foetal calf serum, 2 mM L-glutamine, 100 units/ml of penicillin and […] of streptomycin. The incubation is performed at 37° C. in a 95% air/5% CO2 atmosphere.
(§3) The cells, at the exponential growth phase, are introduced into the wells of a Cytostar 96-well plate, containing a scintillation fluid (Cytostar-T scintillating microplate, GE Healthcare Bio-Sciences AB, Uppsala, Sweden), at the density of 5×10^3 to 10^4 cells per well, in an amount of 180 μl per well. After incubating for 4 hours, the test compounds are added. The compounds are prepared beforehand as a stock solution at the concentration of 10 mM in DMSO. A serial dilution is performed before the compounds are brought into contact with the cells in a volume of 10 μl. After incubating for 72 hours at 37° C. in an atmosphere of 95% air/5% CO2, 0.1 μCi/well of ^14C-thymidine is added. 24 h later (total 96 h of treatment), the incorporation of ^14C-thymidine is recorded on a suitable scintillation counter (MicroBeta radioactivity counting, Perkin-Elmer Life Sciences, Boston, Mass., USA). The mean values obtained in the experimental groups are divided by the mean values obtained in the control groups in order to obtain percentages relative to the controls.
as §1

CH1/DDP = assay: as above; conditions: CH1/DDP cisplatin-resistant human ovarian cancer, 96 h treatment
From the text: (§4) CH1 and CH1 CisR are human ovarian cancers which are sensitive and resistant to cisplatin, respectively. The relative sensitivity of the CH1 cell may be at least partially attributed to a deficiency of a gene involved in repair processes and which is capable of removing the adducts (Chemico-Biological Interactions, 1999; 123:11-29). The CH1cisR cell is resistant to cisplatin through a poorly known mechanism of DNA repair, or increase in the tolerance of the cell to the damage caused by cisplatin to the DNA of this cell (Mol Pharmacol 2003; 63:933-944, Cancer Res 52: 3857-3864).
as §2, §3, §1

CH1 = assay: as above; conditions: CH1 human ovarian cancer, 96 h treatment
From the text: as §4, §2, §3, §1

A2780 = assay: as above; conditions: A2780 human ovarian cancer, 96 h treatment
From the text: (§5) A2780 and A2780/DDP are human ovarian cancer lines. […] The resistance of the A2780/DDP line is of the acquired type and involves various mechanisms: —reduction in the capacity for internalization of cisplatin, —replicative bypass (this is defined as the possibility for a replicative complex to synthesize DNA beyond the site of damage) (Cancer Res 1994; 54:3500-3505), —active detoxification by glutathione (Exp Oncol 2005; 27:191-195), —low activity of Caspase-3, enzymes involved in the process of programmed cell death (J Cancer Res Clin Oncol 2004; 130:423-428) and finally high nuclear efflux of platinum compounds (Oncol Rep 2004; 12:1365-1370).
as §2, §3, §1

A2780/DDP = assay: as above; conditions: A2780/DDP cisplatin-resistant human ovarian cancer, 96 h treatment
From the text: as §5, §2, §3, §1

SK-OV-3 = assay: as above; conditions: SK-OV-3 human ovarian cancer, 96 h treatment, read-out: SKOV3 IC50
Experimental: SK-OV-3 is a human ovarian cancer. […] This cell has an intrinsic mechanism of resistance to cisplatin which is linked to high levels of glutathione (Br J Cancer 1998; 78:175-180). This cell line is commonly used to explore the effects of high levels of glutathione on the resistance to platinum compounds (Br J Cancer 1996, 74: 380-386).
as §2, §3, §1

Row | Compound | IC50 (CCRF-CEM cells) | IC50 (H460) | IC50 (CH1/DDP) | IC50 (CH1) | IC50 (A2780) | IC50 (A2780/DDP) | IC50 (SK-OV-3)
1 | Cn1[c](=[Pt-]([I])([I])[NH2+]C2CC3CCC2C3)n(C)c2ccccc21 (racemic) [Example 7, trans-diiodo(N-exo(+/−)bicyclo[2.2.1]heptylamine)(1,3-dimethyl-benzimidazol-2-ylidene)platinum(II)] | 1300 nM | 1900 nM | 2400 nM | 2500 nM | 400 nM | 1800 nM | 7000 nM
2 | Cn1[c](=[Pt-]([I])([I])[NH2+]C2CC3CCC2C3)n(C)c2ccccc21 (single isomer, unassigned) [Example 16, trans-diiodo(N-exo(+)bicyclo[2.2.1]heptylamine)(1,3-di-methylbenzimidazol-2-ylidene)platinum(II)] | 1400 nM | 4100 nM |  |  | 1100 nM | 2700 nM | 4100 nM
3 | Cn1[c](=[Pt-]([I])([I])[NH2+]C2CC3CCC2C3)n(C)c2ccccc21 (single isomer, unassigned) [Example 17, trans-diiodo(N-exo(−)bicyclo[2.2.1]heptylamine)(1,3-dimethylbenzimidazol-2-ylidene)platinum(II)] | 1800 nM | 1100 nM |  |  | 1100 nM | 2200 nM | 5000 nM
4 | N.N.[Cl][Pt][Cl] [Cisplatin, cisplatin, reference compound] | 3000 nM | 2400 nM | > 10000 nM | 8000 nM | 9000 nM | > 10000 nM | 6100 nM
5 | Cn1ccn(CC2CCCCC2)[c]1=[Pt-]([I])([I])[NH2+]C1CCCCC1 [Example 3, trans-diiodo(N-cyclohexylamine)(1-methyl-3-cyclohexylmethylimidazol-2-ylidene)platinum(II)] | 2000 nM | 3800 nM | 2000 nM | 2300 nM | 1000 nM | 1200 nM | 5300 nM
6 | Cn1ccn(Cc2ccccc2)[c]1=[Pt-]([I])([I])[NH2+]C1CCCCC1 [Example 5, trans-diiodo(N-cyclohexylamine)(1-methyl-3-benzylimidazol-2-ylidene)platinum(II)] | 1200 nM and 1400 nM | 1700 nM and 2700 nM | 2400 nM | 2400 nM | 900 nM | 1800 nM | 6500 nM
7 | Cn1c(=O)c2c(n(C)c1=O)n(C)[c](=[Pt-]([I])([I])[NH2+]C1CCCCC1)n2C [Example 9, trans-diiodo(N-cyclohexylamine)(1,3,7,9-tetramethylxanthin-8-ylidene)platinum(II)] | 2700 nM | 1600 nM | 2100 nM | 2200 nM | 1800 nM | 1400 nM | > 10000 nM
8 | COc1ccc(Cn2ccn(C)[c]2=[Pt]([I])([I])[NH]C2CCCCC2)cc1 [Example 10, trans-diiodo(N-cyclohexylamine)[1-methyl-3-(4-methoxybenzyl)-imidazol-2-ylidene]platinum(II)] | 1600 nM | 3800 nM |  |  | 1600 nM | 2300 nM | 5200 nM
9 | Cn1ccn(Cc2ccc(C(F)(F)F)cc2)[c]1=[Pt-]([I])([I])[NH2+]C1CCCCC1 [Example 11, trans-diiodo(N-cyclohexylamine)[1-methyl-3-(4-trifluoromethylbenzyl)imidazol-2-ylidene]platinum(II)] | 1000 nM | 1500 nM |  |  | 800 nM | 1100 nM | 2600 nM
10 | [I][Pt-2]([I])([NH2+]C1CCCCC1)[c]1n(Cc2ccccc2)cc[n+]1Cc1ccccc1 [Example 12, trans-diiodo(N-cyclohexylamine)[1,3-dibenzylimidazol-2-ylidene]-platinum(II)] | 1300 nM | 3400 nM |  |  | 700 nM | 1200 nM | 2800 nM
11 | Cn1ccn(Cc2ccc(C(F)(F)F)cc2)[c]1=[Pt-]([Br])([Br])[NH2+]C1CCCCC1 [Example 38, trans-dibromo(N-cyclohexylamine)[1-methyl-3-(4-trifluoromethyl-benzyl)imidazol-2-ylidene]platinum(II)] | 2200 nM | 3000 nM |  |  |  |  | 
12 | O=C1[O][Pt]2([NH][C@@H]3CCCC[C@H]3[NH]2)[O]C1=O [Oxaliplatin, oxaliplatin, reference compound] | 900 nM | 4000 nM | 6200 nM | 4200 nM | 3900 nM | 17300 nM | > 10000 nM
13 | CC(C)(C)[n+]1ccn(Cc2ccccc2)[c]1[Pt-2]([I])([I])[n+]1ccccc1 [Reference product, trans-diiodo(pyridine)(1-benzyl-3-tert-butylimidazol-2-ylidene)platinum(II), reference compound] | 3900 nM | 4400 nM |  |  |  |  | 
14 | trans-diiodo(N-cyclohexylamine)(1-methyl-3-phenyl-1,2,4-triazol-5-ylidene)platinum(II) [Example 19] | 1000 nM | 2300 nM |  |  |  |  | 
15 | trans-diiodo(N-cyclohexylamine)[3-benzyl-1-methyl-4-phenylimidazol-2-ylidene]platinum(II) [Example 21] | 900 nM | 1900 nM |  |  |  |  | 

Source: patent US8481522B2, “Platinum-N-heterocyclic carbene derivatives, preparation thereof and therapeutic use thereof” (Sanofi, priority 2008, dated 2013)
